The source of these data is ChEMBL document CHEMBL3045939, “Synthesis and evaluation of fused pyrimidine derivatives as anti-inflammatory, antiproliferative and antimicrobial agents” (Med Chem Res, 2012).

≈ marks a conversion by molar mass, not a printed value.

The test system of one experiment is Candida albicans. The experiment can be described thus: Antimicrobial activity against Candida albicans ATCC 24433 after 48 hr by broth micro dilution assay. It counts as functional. The conditions noted are these: ATCC 24433, 48 h.
In experiment [1] the test system is Rattus norvegicus. The experiment can be described thus: Anti-inflammatory activity in Rattus norvegicus Wistar albino (rat) assessed as carrageenan-induced paw volume at 100 mg/kg, po administered 1 hr prior to carrageenan-challenge measured at 3 hr (reference value: 1.225 +/- 0.0484 mm3). It counts as functional.
Another experiment concerns Aspergillus flavus. The experiment in a line: Antimicrobial activity against Aspergillus flavus ATCC 15517 after 48 hr by broth micro dilution assay. It counts as functional. The conditions noted are these: ATCC 15517, 48 h.
A further experiment has as its system HEp-2. The experiment can be described thus: Cytotoxicity against Homo sapiens (human) Hep2 cells after 24 hr by MTT assay. It counts as functional, cell-based. The conditions noted are these: HEp-2, 24 h. A general note: Tetrazolium dyes change colour on reduction, which living cells bring about.
The next experiment concerns Staphylococcus aureus. The experiment in a line: Antimicrobial activity against Staphylococcus aureus ATCC 25923 after 24 hr by broth micro dilution assay. The class given is functional. The conditions noted are these: ATCC 25923, 24 h.
Experiment [2] concerns Rattus norvegicus. The experiment in a line: Anti-inflammatory activity in Rattus norvegicus Wistar albino (rat) assessed as carrageenan-induced paw volume at 100 mg/kg, po administered 1 hr prior to carrageenan-challenge measured at 4 hr (reference value: 1.2825 +/- 0.0862 mm3). It counts as functional. (In general: In the carrageenan paw model, swelling and tenderness develop within hours.)

In a further experiment the test system is Escherichia coli. The experiment can be described thus: Antimicrobial activity against Escherichia coli ATCC 25922 after 24 hr by broth micro dilution assay. The class given is functional. The conditions noted are these: ATCC 25922, 24 h.
The next experiment deals with HeLa. The experiment in a line: Cytotoxicity against Homo sapiens (human) HeLa cells after 24 hr by MTT assay. The class given is functional, cell-based.
The subject of experiment [3] is Rattus norvegicus. The experiment can be described thus: Anti-inflammatory activity in Rattus norvegicus Wistar albino (rat) assessed as carrageenan-induced paw volume at 100 mg/kg, po administered 1 hr prior to carrageenan-challenge measured at 5 hr (reference value: 1.24 +/- 0.0754 mm3). The class given is functional.
The subject of another experiment is Pseudomonas aeruginosa. The experiment in a line: Antimicrobial activity against Pseudomonas aeruginosa ATCC 27853 after 24 hr by broth micro dilution assay. The conditions noted are these: ATCC 27853, 24 h. The class given is functional.
Experiment [4] has as its system Rattus norvegicus. The experiment in a line: Anti-inflammatory activity in Rattus norvegicus Wistar albino (rat) assessed as carrageenan-induced paw volume at 100 mg/kg, po administered 1 hr prior to carrageenan-challenge measured at 1 hr (reference value: 1.2075 +/- 0.0405 mm3). It counts as functional.
A short description of experiment [5]: Cytotoxicity against Homo sapiens (human) Chang cells after 24 hr by MTT assay. The class given is functional, cell-based.
Experiment [6] has as its system Rattus norvegicus. The experiment can be described thus: Anti-inflammatory activity in Rattus norvegicus Wistar albino (rat) assessed as carrageenan-induced paw volume at 100 mg/kg, po administered 1 hr prior to carrageenan-challenge measured at 2 hr (reference value: 1.4175 +/- 0.1931 mm3). The class given is functional.
In experiment [7] the test system is Rattus norvegicus. The experiment in a line: Anti-inflammatory activity in Rattus norvegicus Wistar albino (rat) assessed as inhibition of carrageenan-induced paw edema at 100 mg/kg, po administered 1 hr prior to carrageenan-challenge measured at 1 hr relative to control. It counts as functional.
For experiment [8], the system named is Rattus norvegicus. The experiment can be described thus: Anti-inflammatory activity in Rattus norvegicus Wistar albino (rat) assessed as inhibition of carrageenan-induced paw edema at 100 mg/kg, po administered 1 hr prior to carrageenan-challenge measured at 2 hr relative to control. It counts as functional.

`COc1ccc(-n2c(-c3ccccc3)nc3ccc(Cl)cc3c2=O)cc1`: the MIC (usually the lowest concentration found to suppress growth) against Candida albicans was 12.5 mg/L (≈ 34.5 µM); in the experiment on Aspergillus flavus, greater than 100 mg/L; against Staphylococcus aureus, 3.12 mg/L (≈ 8.6 µM); against Escherichia coli, 1.56 mg/L (≈ 4.3 µM); against Pseudomonas aeruginosa, 3.12 mg/L (≈ 8.6 µM). Further, the Activity in the experiment with Rattus norvegicus [1] is given as 1.21 mm3; in the experiment with Rattus norvegicus [2], 1.14 mm3; in the experiment on Rattus norvegicus [3] it was 1.175 mm3; in the experiment with Rattus norvegicus [4], 1.12 mm3. In addition, the IC50 (in general, the concentration needed to halve the response being measured) was 12.5 mg/L (≈ 34.5 µM) in the experiment on HEp-2, less than 50 mg/L with HeLa and greater than 25 mg/L in experiment [5].
On to `O=c1c2cc(Cl)ccc2nc(-c2ccccc2)n1-c1ccc(F)c(Cl)c1`, for which the MIC was greater than 100 mg/L in the experiment with Candida albicans; greater than 100 mg/L in the experiment with Aspergillus flavus; greater than 100 mg/L against Staphylococcus aureus; greater than 100 mg/L against Escherichia coli; 100 mg/L (≈ 260 µM) against Pseudomonas aeruginosa. Further, the Activity was 1.17 mm3 in the experiment on Rattus norvegicus [1]; 1.3525 mm3 in the experiment with Rattus norvegicus [6]; 1.3075 mm3 with Rattus norvegicus [2]; 1.25 mm3 with Rattus norvegicus [3]; 1.1875 mm3 in the experiment on Rattus norvegicus [4]. The figures for the IC50 (with HEp-2; in the experiment on HeLa; in experiment [5]) were less than 6.25 mg/L, less than 25 mg/L and less than 6.25 mg/L, respectively.
Regarding `O=c1c2cc(Cl)ccc2nc(-c2ccccc2)n1Cc1ccc(F)cc1`, the MIC in the experiment on Candida albicans came out at 12.5 mg/L (≈ 34.3 µM); in the experiment on Aspergillus flavus it was 25 mg/L (≈ 68.5 µM); with Staphylococcus aureus, 0.78 mg/L (≈ 2.14 µM); in the experiment with Escherichia coli, 1.56 mg/L (≈ 4.28 µM); with Pseudomonas aeruginosa, 3.12 mg/L (≈ 8.55 µM). In addition, the Activity with Rattus norvegicus [1] turned out to be 1.135 mm3; with Rattus norvegicus [6] it was 1.285 mm3; in the experiment on Rattus norvegicus [2], 1.24 mm3; with Rattus norvegicus [3], 1.2875 mm3; in the experiment on Rattus norvegicus [4], 1.1525 mm3. For the same molecule, the IC50 in the experiment with HEp-2 amounted to 10.9 mg/L (≈ 29.8 µM); in the experiment on HeLa it was 41.5 mg/L (≈ 114 µM); in [5] it was 17.9 mg/L (≈ 49.2 µM).
`O=c1c2cc(Cl)ccc2nc(-c2ccccc2)n1Cc1ccc(Cl)cc1`: the minimal inhibitory concentration (MIC) came to 12.5 mg/L (≈ 32.8 µM) against Candida albicans; 25 mg/L (≈ 65.6 µM) in the experiment on Aspergillus flavus; 0.78 mg/L (≈ 2.05 µM) against Staphylococcus aureus; 1.56 mg/L (≈ 4.09 µM) against Escherichia coli; 3.12 mg/L (≈ 8.18 µM) with Pseudomonas aeruginosa. For the same molecule, the Activity came to 1.195 mm3 in the experiment on Rattus norvegicus [1], 1.265 mm3 with Rattus norvegicus [6], 1.2325 mm3 in the experiment with Rattus norvegicus [2] and 1.1825 mm3 in the experiment on Rattus norvegicus [3]. For the same molecule, the inhibition in vivo (as a rule, the change of the read-out against control, counted positive when it falls) at 100 mg/kg in the experiment with Rattus norvegicus [7] was determined as 72.9%. The IC50 in the experiment with HEp-2 was greater than 50 mg/L; in the experiment with HeLa it was greater than 200 mg/L; in experiment [5], greater than 50 mg/L.
`O=c1c2cc(Cl)ccc2nc(-c2ccccc2)n1-c1cccc(Cl)c1`: the MIC in the experiment with Candida albicans was greater than 100 mg/L; with Aspergillus flavus, greater than 100 mg/L; in the experiment with Staphylococcus aureus it was 3.12 mg/L (≈ 8.5 µM); with Escherichia coli, 6.25 mg/L (≈ 17 µM); against Pseudomonas aeruginosa, 25 mg/L (≈ 68.1 µM). Moreover, the Activity was 1.06 mm3 in the experiment on Rattus norvegicus [1]; 1.0625 mm3 in the experiment with Rattus norvegicus [6]; 1.0575 mm3 with Rattus norvegicus [2]; 1.125 mm3 in the experiment with Rattus norvegicus [3]; 1.1325 mm3 with Rattus norvegicus [4]. The values for the half-inhibitory concentration (IC50) (in the experiment with HEp-2; with HeLa; in [5]) were less than 6.25 mg/L, less than 25 mg/L and less than 6.25 mg/L, respectively. For the same molecule, the inhibition in vivo at 100 mg/kg with Rattus norvegicus [8] turned out to be 86.8%.
For the molecule `CN(C)CCn1c(-c2ccccc2)nc2ccc(Cl)cc2c1=O`, the MIC was 50 mg/L (≈ 153 µM) in the experiment on Candida albicans; 100 mg/L (≈ 305 µM) with Aspergillus flavus; 1.56 mg/L (≈ 4.76 µM) against Staphylococcus aureus; 3.12 mg/L (≈ 9.52 µM) in the experiment with Escherichia coli; 6.25 mg/L (≈ 19.1 µM) against Pseudomonas aeruginosa. In addition, the Activity in the experiment with Rattus norvegicus [1] is on record as 1.1875 mm3; in the experiment with Rattus norvegicus [2] it was 1.165 mm3; with Rattus norvegicus [3] it was 1.215 mm3; in the experiment on Rattus norvegicus [4], 1.1825 mm3. For the same molecule, the half-maximal inhibitory concentration (IC50) is 20.5 mg/L (≈ 62.5 µM) in the experiment on HEp-2, greater than 200 mg/L in the experiment with HeLa and 33.4 mg/L (≈ 102 µM) in experiment [5]. Also, the inhibition in vivo at 100 mg/kg in the experiment on Rattus norvegicus [8] was 88.4%.
`O=c1c2cc(Cl)ccc2nc(-c2ccccc2)n1-c1ccc(Cl)cc1`: the MIC against Candida albicans was greater than 100 mg/L; in the experiment on Aspergillus flavus, greater than 100 mg/L; with Staphylococcus aureus, 3.12 mg/L (≈ 8.5 µM); against Escherichia coli, 12.5 mg/L (≈ 34 µM); in the experiment with Pseudomonas aeruginosa, 12.5 mg/L (≈ 34 µM). Further, the Activity worked out at 1.23 mm3 in the experiment on Rattus norvegicus [1]; 1.11 mm3 with Rattus norvegicus [6]; 1.1425 mm3 in the experiment with Rattus norvegicus [2]; 1.1825 mm3 with Rattus norvegicus [3]; 1.135 mm3 with Rattus norvegicus [4]. The figures for the IC50 (with HEp-2; with HeLa; in experiment [5]) were less than 25 mg/L, less than 25 mg/L and 6.25 mg/L (≈ 17 µM), respectively.
With `CC(C)Cc1ccc(C(C)C(=O)O)cc1` (configuration not stated) [IBUPROFEN], the inhibition in vivo at 100 mg/kg in the experiment with Rattus norvegicus [8] came out at 65.3%.
